Tests used:
[1] = system: Rattus norvegicus; test: Inhibition of 5-HT induced pressor response in pithed rats, after intravenous administration; assay type: functional
[2] = system: Rattus norvegicus; test: Inhibition of 5-HT induced pressor response in pithed rats, after intravenous administration of 0.02 mg/kg; assay type: functional
[3] = system: Rattus norvegicus; test: Inhibition of 5-HT induced pressor response in pithed rats, after intravenous administration, activity is expressed as ED50; assay type: functional
[4] = target: Sodium-dependent serotonin transporter (Rattus norvegicus, UniProt P31652); test: In vitro inhibition of [3H]5-HT transporter uptake in rat brain synaptosomes; assay type: subcellular
[5] = species on record: Mus musculus; test: Inhibition of methyl phenidate induced stereotyped gnawing in mice; assay type: functional
[6] = species on record: Rattus norvegicus; test: Inhibition of L-5-HTP (L-5-hydroxytryptophan) induced head twitches in rat; assay type: functional
[7] = species on record: Rattus norvegicus; test: Ratio of phenylephrine ED50/ 5-HT ED50; assay type: functional
[8] = target: D(2) dopamine receptor (Rattus norvegicus, UniProt P61169); test: Inhibition of [3H]spiperone binding to Dopamine receptor D2 from rat striatal membranes; assay type: cell membranes, Membrane
[9] = target: Norepinephrine transporter (Rattus norvegicus, UniProt Q9WTR4); test: In vitro inhibition of [3H]norepinephrine uptake in rat brain synaptosomes; assay type: subcellular
[10] = target: Serotonin 2 (5-HT2) receptor (Rattus norvegicus, UniProt P30994+P08909+P14842); test: Inhibition of [3H]spiperone binding to 5-hydroxytryptamine 2 receptor from rat cortical membranes; assay type: cell membranes, Membrane
[11] = target: Sodium-dependent dopamine transporter (Rattus norvegicus, UniProt P23977); test: In vitro inhibition of [3H]dopamine uptake in rat brain synaptosomes; assay type: subcellular
[12] = system: Rattus norvegicus; test: Percent reduction of systolic arterial blood pressure(SAP) in spontaneously hypertensive rat after 10 min at intraperitoneal administration of 5 mg/kg; assay type: functional
[13] = system: Rattus norvegicus; test: Percent reduction of diastolic arterial blood pressure(DAP) in spontaneously hypertensive rat after 10 min at intraperitoneal administration of 5 mg/kg; assay type: functional
[14] = system: Rattus norvegicus; test: Inhibition of phenylephrine induced pressor response in pithed rats (following i.v. administration of […]); assay type: functional; conditions: route intravenous
[15] = target: T1, Adrenergic receptor alpha-1 (Rattus norvegicus, UniProt P15823+P23944+P43140); test: Inhibition of [3H]prazosin binding to alpha-1 adrenergic receptor from rat cortical membranes; assay type: cell membranes, Membrane
T1 sequence (P15823 whole entry): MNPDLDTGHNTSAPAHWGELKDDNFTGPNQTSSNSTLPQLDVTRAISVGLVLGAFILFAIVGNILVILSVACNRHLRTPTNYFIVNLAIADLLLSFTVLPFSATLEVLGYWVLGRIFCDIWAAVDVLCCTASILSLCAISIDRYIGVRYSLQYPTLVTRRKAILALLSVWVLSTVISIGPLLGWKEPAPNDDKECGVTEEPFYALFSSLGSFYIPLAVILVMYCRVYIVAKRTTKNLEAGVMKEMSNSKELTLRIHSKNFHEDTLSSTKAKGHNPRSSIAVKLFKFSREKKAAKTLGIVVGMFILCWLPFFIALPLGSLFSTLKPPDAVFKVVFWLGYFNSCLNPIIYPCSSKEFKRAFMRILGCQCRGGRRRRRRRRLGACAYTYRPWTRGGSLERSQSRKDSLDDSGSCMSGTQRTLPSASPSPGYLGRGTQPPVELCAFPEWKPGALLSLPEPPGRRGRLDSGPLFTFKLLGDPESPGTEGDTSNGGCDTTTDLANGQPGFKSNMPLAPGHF
T1 sequence (P23944 whole entry): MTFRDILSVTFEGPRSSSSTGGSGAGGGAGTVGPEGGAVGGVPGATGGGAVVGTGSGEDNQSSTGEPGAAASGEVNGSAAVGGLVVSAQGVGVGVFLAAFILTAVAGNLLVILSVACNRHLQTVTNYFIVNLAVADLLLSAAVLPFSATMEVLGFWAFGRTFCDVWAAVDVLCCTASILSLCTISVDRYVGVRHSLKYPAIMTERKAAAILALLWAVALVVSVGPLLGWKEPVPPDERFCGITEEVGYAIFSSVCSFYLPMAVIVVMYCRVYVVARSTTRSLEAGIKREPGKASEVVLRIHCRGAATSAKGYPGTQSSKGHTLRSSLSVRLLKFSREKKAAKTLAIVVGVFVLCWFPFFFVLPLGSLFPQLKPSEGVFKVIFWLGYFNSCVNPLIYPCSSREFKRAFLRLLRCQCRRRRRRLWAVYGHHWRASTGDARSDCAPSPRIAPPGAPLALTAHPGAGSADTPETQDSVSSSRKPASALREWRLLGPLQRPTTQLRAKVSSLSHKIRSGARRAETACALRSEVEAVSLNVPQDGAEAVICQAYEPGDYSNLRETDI
T1 sequence (P43140 whole entry): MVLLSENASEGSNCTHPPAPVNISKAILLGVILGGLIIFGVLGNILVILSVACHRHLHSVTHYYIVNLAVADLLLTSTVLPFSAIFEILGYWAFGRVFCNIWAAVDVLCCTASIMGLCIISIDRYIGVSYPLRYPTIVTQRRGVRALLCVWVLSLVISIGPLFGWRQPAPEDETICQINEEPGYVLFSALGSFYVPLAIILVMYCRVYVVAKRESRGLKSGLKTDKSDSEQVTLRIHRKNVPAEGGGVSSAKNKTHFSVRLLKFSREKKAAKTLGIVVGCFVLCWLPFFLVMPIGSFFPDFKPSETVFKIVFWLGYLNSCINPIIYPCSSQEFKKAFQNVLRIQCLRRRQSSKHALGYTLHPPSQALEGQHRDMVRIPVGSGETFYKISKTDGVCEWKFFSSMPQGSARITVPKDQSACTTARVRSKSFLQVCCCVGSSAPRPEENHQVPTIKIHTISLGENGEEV

Sequence of D(2) dopamine receptor (P61169 whole entry): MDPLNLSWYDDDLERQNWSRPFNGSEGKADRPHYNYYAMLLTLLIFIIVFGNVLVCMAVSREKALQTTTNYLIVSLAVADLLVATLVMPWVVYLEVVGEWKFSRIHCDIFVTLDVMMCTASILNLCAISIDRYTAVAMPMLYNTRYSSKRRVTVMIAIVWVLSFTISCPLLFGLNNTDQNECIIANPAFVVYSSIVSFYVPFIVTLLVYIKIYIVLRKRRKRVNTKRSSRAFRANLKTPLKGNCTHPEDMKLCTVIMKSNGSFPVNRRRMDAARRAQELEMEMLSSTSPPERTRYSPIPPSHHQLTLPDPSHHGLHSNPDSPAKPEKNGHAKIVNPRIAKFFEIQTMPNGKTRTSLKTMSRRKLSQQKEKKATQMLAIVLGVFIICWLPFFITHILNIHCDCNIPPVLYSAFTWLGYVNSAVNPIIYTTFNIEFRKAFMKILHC
Sequence of Sodium-dependent serotonin transporter (P31652 whole entry): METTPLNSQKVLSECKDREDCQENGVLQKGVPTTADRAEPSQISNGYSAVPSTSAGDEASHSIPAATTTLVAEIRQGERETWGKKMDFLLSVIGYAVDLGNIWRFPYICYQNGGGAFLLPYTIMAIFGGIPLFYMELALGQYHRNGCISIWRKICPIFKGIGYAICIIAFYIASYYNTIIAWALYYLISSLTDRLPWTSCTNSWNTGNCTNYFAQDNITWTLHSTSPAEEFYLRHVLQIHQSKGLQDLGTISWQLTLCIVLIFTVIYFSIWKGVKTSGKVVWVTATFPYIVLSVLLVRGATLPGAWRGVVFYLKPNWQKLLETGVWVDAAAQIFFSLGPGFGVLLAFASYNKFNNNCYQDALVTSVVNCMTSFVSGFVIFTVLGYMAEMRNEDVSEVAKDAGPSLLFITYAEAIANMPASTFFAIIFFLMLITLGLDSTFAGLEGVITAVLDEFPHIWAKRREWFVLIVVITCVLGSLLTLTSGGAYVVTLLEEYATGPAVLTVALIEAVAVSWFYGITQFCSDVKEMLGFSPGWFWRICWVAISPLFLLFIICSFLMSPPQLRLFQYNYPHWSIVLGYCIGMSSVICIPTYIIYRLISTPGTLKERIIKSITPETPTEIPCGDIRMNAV
Sequence of Sodium-dependent dopamine transporter (P23977 whole entry): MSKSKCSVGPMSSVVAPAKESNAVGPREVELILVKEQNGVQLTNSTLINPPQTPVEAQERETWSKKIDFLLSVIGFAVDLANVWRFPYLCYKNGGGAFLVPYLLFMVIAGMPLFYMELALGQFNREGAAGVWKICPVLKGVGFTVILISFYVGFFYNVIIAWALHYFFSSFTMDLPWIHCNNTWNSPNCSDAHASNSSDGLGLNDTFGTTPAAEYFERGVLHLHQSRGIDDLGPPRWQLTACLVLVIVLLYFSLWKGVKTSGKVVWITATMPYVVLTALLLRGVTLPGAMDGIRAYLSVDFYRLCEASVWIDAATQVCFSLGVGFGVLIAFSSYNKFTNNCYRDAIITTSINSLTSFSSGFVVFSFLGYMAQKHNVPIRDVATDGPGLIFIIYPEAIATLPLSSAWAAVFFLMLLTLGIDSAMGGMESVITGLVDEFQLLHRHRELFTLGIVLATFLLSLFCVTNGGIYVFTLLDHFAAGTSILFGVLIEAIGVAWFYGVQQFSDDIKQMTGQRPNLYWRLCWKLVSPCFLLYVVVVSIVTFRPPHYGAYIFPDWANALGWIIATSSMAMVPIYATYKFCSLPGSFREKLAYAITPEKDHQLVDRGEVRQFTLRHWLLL
Sequence of Norepinephrine transporter (Q9WTR4 whole entry): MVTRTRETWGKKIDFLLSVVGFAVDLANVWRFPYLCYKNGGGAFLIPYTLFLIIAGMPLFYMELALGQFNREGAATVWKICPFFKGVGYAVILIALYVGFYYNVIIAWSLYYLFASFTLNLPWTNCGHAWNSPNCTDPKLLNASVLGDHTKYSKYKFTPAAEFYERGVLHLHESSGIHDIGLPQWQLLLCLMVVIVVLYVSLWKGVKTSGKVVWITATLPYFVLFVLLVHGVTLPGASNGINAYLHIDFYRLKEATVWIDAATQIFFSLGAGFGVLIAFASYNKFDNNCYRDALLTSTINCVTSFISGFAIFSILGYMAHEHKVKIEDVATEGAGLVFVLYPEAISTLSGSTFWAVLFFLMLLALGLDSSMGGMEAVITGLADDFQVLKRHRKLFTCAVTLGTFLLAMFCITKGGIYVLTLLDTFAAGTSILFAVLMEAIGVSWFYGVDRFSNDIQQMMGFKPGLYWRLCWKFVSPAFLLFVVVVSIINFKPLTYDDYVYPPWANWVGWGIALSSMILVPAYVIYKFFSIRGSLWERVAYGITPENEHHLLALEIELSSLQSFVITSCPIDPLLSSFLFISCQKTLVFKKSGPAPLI

## Fc1ccc([C@@H]2C[C@@H](N3CCNCC3)c3ccccc32)cc1.O=C(O)/C=C\C(=O)O.O=C(O)/C=C\C(=O)O
[1]
  ED50: 0.1 µmol/kg
[2]
  Change: -40%
[3]
  ED50: 8.3 µmol/kg
[4]
  IC50: 42 nM
[5]
  ED50: > 76 µmol/kg
[6]
  ED50: 1.7 µmol/kg
[7]
  Ratio: 83
[8]
  IC50: 580 nM
[9]
  IC50: 450 nM
[10]
  IC50: 18 nM
[11]
  IC50: 280 nM
[12]
  Reduction: -25%
[13]
  Reduction: -31%
[14]
  Change: 10%
[15]
  IC50: 37 nM

## O=C(O)/C=C\C(=O)O.O=C(O)/C=C\C(=O)O.O=C1NCCN1CCN1CCN([C@@H]2C[C@@H](c3ccc(F)cc3)c3ccc(F)cc32)CC1
[1]
  ED50: 0.01 µmol/kg
[3]
  ED50: 1.4 µmol/kg
[4]
  IC50: 720 nM
[6]
  ED50: 0.096 µmol/kg
[7]
  Ratio: 140
[8]
  IC50: 46 nM
[9]
  IC50: 2500 nM
[10]
  IC50: 4.3 nM
[11]
  IC50: 5700 nM
[12]
  Reduction: -24%
[13]
  Reduction: -31%
[15]
  IC50: 10 nM

— ChEMBL document CHEMBL1124016, “Antihypertensive activity in a series of 1-piperazino-3-phenylindans with potent 5-HT2-antagonistic activity” (J Med Chem, 1988)
